# From patent US11413278B2, “Compounds and methods for promoting stress resistance” (priority 2015, dated 2022)
# “Also recorded” adds a separate entry of the source. Where two headings read alike, the source gives them in different places.
# Assays:
# human PARP1 = biological target: T1, human PARP1 (Homo sapiens, UniProt P09874); test: PARP inhibitor assay (HT Fluorescent Homogeneous PARP Inhibition Assay Kit); format: biochemical; conditions: for L = PARP inhibition: score
# T1 construct: purchased Trevigen
# T1 sequence (P09874 whole entry): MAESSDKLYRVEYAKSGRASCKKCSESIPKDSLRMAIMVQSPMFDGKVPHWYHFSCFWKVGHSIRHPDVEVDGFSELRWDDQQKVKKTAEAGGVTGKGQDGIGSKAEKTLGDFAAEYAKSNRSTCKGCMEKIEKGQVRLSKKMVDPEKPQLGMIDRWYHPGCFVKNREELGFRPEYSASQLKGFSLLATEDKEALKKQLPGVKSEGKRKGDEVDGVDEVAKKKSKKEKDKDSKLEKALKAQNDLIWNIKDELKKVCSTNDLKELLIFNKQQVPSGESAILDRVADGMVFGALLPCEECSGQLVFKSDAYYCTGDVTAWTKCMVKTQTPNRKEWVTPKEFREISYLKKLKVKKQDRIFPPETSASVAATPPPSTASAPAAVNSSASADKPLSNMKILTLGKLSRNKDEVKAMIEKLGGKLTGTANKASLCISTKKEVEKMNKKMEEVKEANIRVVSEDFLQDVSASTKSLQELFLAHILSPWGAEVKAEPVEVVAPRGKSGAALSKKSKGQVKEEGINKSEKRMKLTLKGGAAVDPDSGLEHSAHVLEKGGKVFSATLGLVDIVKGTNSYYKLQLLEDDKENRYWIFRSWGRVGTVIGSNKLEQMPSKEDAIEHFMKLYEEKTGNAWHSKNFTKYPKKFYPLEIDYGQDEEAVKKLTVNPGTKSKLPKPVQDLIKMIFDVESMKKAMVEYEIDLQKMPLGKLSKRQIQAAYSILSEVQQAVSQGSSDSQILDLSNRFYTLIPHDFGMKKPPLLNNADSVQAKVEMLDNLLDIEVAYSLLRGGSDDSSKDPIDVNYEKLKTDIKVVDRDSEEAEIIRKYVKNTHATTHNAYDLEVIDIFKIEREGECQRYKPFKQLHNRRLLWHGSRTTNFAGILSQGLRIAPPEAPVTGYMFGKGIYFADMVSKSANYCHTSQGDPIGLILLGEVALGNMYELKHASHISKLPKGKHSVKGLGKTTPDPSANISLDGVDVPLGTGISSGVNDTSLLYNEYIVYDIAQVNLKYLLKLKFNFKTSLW
# Outline: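 Human PARP1 with NAD and activated DNA, compounds at 10 μM final, 30 min at room temperature in dark. Resazurin/diaphorase cycling mix then added for 1 hr in dark before stop buffer; fluorescent homogeneous kit read-out.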
# WI-38 cells [1] = test: CdCl2 (cadmium) resistance assay; format: cell-based, human; conditions: for fold induction at 10 µM: Homo sapiens, 12 h, normalized ATP measurement; for Assay 4: H2O2- & Cd-resistant / Assay 2: Cadmium-resistant: YES/NO; for Assay 2: Cadmium-resistant: * indicates partial
# Outline: (§1)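 WI-38 cells were given compounds at five final concentrations (0.25–20 μM) in triplicate, followed by cadmium or MMS for 12 h. For MMS, medium was switched from OptiMEM+10% FBS to serum-free DMEM+2% BSA when compounds were added, 24 h before stressor. Two independent assays were run, analysed by global variance t-test.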
# WI-38 cells [2] = test: MMS resistance assay; format: cell-based, human; conditions: for fold induction at 10 µM: Homo sapiens, 12 h, normalized ATP measurement; for Assay 3: MMS-resistant / Assay 5: Triple resistant: YES/NO; for Assay 3: MMS-resistant: * indicates partial; for Assay 5: Triple resistant: H2O2, cadmium and MMS
# Outline: as §1
# C. elegans = format: in vivo, Caenorhabditis elegans
# Outline: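 Worms treated in liquid with compounds in 96-well plates (4 wells each, FUdR to block progeny, 0.2% DMSO controls); H2O2 at 500 μM final added on day 4 of adulthood and viability scored daily.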
# [3] = test system: phosphorylated γH2A.X and TP53BP1; test: DNA damage marker analysis (immuno-staining); conditions: for activity at 10 µM: Homo sapiens, WI-38, 24 h
# Outline: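 WI-38 cells were cultured 24 h, then treated with compounds for 24 h; H2O2 (700 μM, 3 h) and doxorubicin (300 nM, 24 h) served as DNA-damage controls. After fixation, cells were immunostained for phospho-γH2A.X (Ser-139) and phospho-TP53BP1 (Ser-1778), counterstained with DAPI, and imaged by automated high-content microscopy.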
# WI-38 cells [4] = conditions: for No H2O2 stress treatment, at 10 uM (fold change): normalized ATP measurement; for Assay 1: H2O2-resistant: YES/NO, if NO, possibly due to repeated freezing/thawing of stocks
# [5] = Exp. 1, WI-38 cells, read-out: Exp. 1, under Cd2Cl2 stress treatment, at 10 uM (fold change)
# [6] = Exp. 2, WI-38 cells, read-out: Exp. 2, under Cd2Cl2 stress treatment, at 10 uM (fold change)
# [7] = score in summary of 38 core set hits
# [8] = Exp. 1, WI-38 cells, read-out: Exp. 1, under MMS stress treatment, at 10 uM (fold change)
# [9] = Exp. 2, WI-38 cells, read-out: Exp. 2, under MMS stress treatment, at 10 uM (fold change)
# [10] = read-out: Experiment 1, H2A.X-P DNA damage foci staining (no H2O2 stress treatment), at 10 uM
# [11] = read-out: Experiment 2, H2A.X-P DNA damage foci staining (no H2O2 stress treatment), at 10 uM
# [12] = read-out: Experiment 2, H2A.X-P DNA damage foci staining (under H2O2 stress treatment), at 10 uM
# [13] = read-out: Experiment 2, TP53BP1-P DNA damage foci staining (no H2O2 stress treatment), at 10 uM
# [14] = read-out: Experiment 2, TP53BP1-P DNA damage foci staining (under H2O2 stress treatment), at 10 uM
# [15] = WI-38 cells, 10 μM, (*) = compromised ability to protect cells from H2O2, could be due to stability issue
# [16] = asterisks indicate the loss of the ability to protect cells from H2O2 over time
# [17] = derived from dose response curves, 0.6-20 uM, H2O2-resistance of WI-38 cells
# [18] = read-out: Est. ED50, dose response 0.6-20 μM, H2O2-resistance
# [19] = WI-38 cells, 10 μM, both stressors
Compound,L = PARP inhibition (human PARP1),fold induction at 10 µM (WI-38 cells [1]; [5]),fold induction at 10 µM (WI-38 cells [1]; [6]),Assay 4: H2O2- & Cd-resistant (WI-38 cells [1]),Assay 2: Cadmium-resistant (WI-38 cells [1]),A = Cadmium resistant (WI-38 cells [1]; [7]),A = Cadmium resistant (WI-38 cells [1]; summary score),C = H2O2- & Cd-resistant (WI-38 cells [1]; summary score),fold induction at 10 µM (WI-38 cells [2]; [8]),fold induction at 10 µM (WI-38 cells [2]; [9]),Assay 3: MMS-resistant (WI-38 cells [2]),Assay 5: Triple resistant (WI-38 cells [2]),B = MMS resistant (WI-38 cells [2]; [7]),B = MMS resistant (WI-38 cells [2]; summary score),D = Triple resistant (WI-38 cells [2]; summary score),"activity at 10 µM [3, 10]","activity at 10 µM [3, 11]","activity at 10 µM [3, 12]","activity at 10 µM [3, 13]","activity at 10 µM [3, 14]",also measured
O=C(c1ccc([N+](=O)[O-])o1)N1CCc2ccccc21 [O13],0,1.27,1.55,YES,YES,0,1,1,1.11,2.24,YES,YES,0,1,2,145%,98.3%,152%,238%,673%,"H2O2-resistance assay, 1st experiment (C. elegans; in vivo): YES;; L = H2O2-resistance in worms (C. elegans; in vivo): 0; N = H2O2-resistance in woms (C. elegans; in vivo): 0; P = Potential DNA-damaging ([3]; human, 24 h): 0; R = Potential DNA damaging ([3]; human, 24 h): 0; H2O2-resistant (WI-38 cells [4]; [15]): YES; No H2O2 stress treatment, at 10 uM (fold change) (WI-38 cells [4]; WI-38 cells): 1.09 fold change; Assay 1: H2O2-resistant (WI-38 cells [4]): YES; H2O2-resistant (WI-38 cells [4]; [16]): YES; EC50 (WI-38 cells [4]; [17]): 10.1 µM; EC50 (WI-38 cells [4]; [18]): 10.1 µM"
COc1ccc(C(=O)/C=C/c2ccccc2Br)c(OC)c1 [Gr-4B],0,2,1.52,YES,YES,1,1,1,1.22,1.54,YES,YES,0,1,2,116%,140%,150%,118%,435%,"CdCl2-resistant (WI-38 cells [1]): YES; H2O2- & CdCl2-resistant (WI-38 cells [1]): YES; CdCl2-resistant (WI-38 cells [1]; WI-38 cells, 10 μM): YES; H2O2- & CdCl2-resistant (WI-38 cells [1]; [19]): YES; N = H2O2-resistance in woms (C. elegans; score): 0; L = H2O2-resistance in worms (C. elegans; summary score): 0; R = Potential DNA damaging ([3]; negative point, cultured human cells): 0; P = Potential DNA-damaging ([3]; summary score): 0; H2O2-resistant (WI-38 cells [4]; [15]): YES; No H2O2 stress treatment, at 10 uM (fold change) (WI-38 cells [4]; WI-38 cells): 1.18 fold change; Assay 1: H2O2-resistant (WI-38 cells [4]): YES; H2O2-resistant (WI-38 cells [4]; [16]): YES; EC50 (WI-38 cells [4]; [17]): 8.9 µM; EC50 (WI-38 cells [4]; [18]): 5.33 µM"
Oc1ncnc2sc3c(c12)CCC3 [O14],1,2.2,2.69,YES,YES,1,1,1,0.84,3.45,YES,YES,0,1,2,116%,85.3%,221%,159%,254%,"Inhibition of PARP1 (human PARP1; 10 μM, in vitro): inhibitors of PARP1; also recorded: identified PARP inhibitor; CdCl2-resistant (WI-38 cells [1]): YES; H2O2- & CdCl2-resistant (WI-38 cells [1]): YES; CdCl2-resistant (WI-38 cells [1]; WI-38 cells, 10 μM): YES; H2O2- & CdCl2-resistant (WI-38 cells [1]; [19]): YES; L = H2O2-resistance in worms (C. elegans; in vivo): 0; N = H2O2-resistance in woms (C. elegans; in vivo): 0; P = Potential DNA-damaging ([3]; human, 24 h): 0; R = Potential DNA damaging ([3]; human, 24 h): 0; H2O2-resistant (WI-38 cells [4]; [15]): YES; No H2O2 stress treatment, at 10 uM (fold change) (WI-38 cells [4]; WI-38 cells): 1.11 fold change; Assay 1: H2O2-resistant (WI-38 cells [4]): YES; H2O2-resistant (WI-38 cells [4]; [16]): YES; EC50 (WI-38 cells [4]; [17]): 12.5 µM; EC50 (WI-38 cells [4]; [18]): 12.5 µM"
O=C(Nc1cc(C(F)(F)F)ccc1Cl)c1ccc([N+](=O)[O-])o1 [Gr-1B],0,2.01,1.72,YES,YES,1,1,1,0.7,3.03,NO *,YES,0,0,0,134%,95.8%,118%,211%,137%,"CdCl2-resistant (WI-38 cells [1]): YES; H2O2- & CdCl2-resistant (WI-38 cells [1]): YES; CdCl2-resistant (WI-38 cells [1]; WI-38 cells, 10 μM): YES; H2O2- & CdCl2-resistant (WI-38 cells [1]; [19]): YES; L = H2O2-resistance in worms (C. elegans; in vivo): 0; N = H2O2-resistance in woms (C. elegans; in vivo): 0; P = Potential DNA-damaging ([3]; human, 24 h): 0; R = Potential DNA damaging ([3]; human, 24 h): 0; H2O2-resistant (WI-38 cells [4]; [15]): YES; No H2O2 stress treatment, at 10 uM (fold change) (WI-38 cells [4]; WI-38 cells): 0.94 fold change; Assay 1: H2O2-resistant (WI-38 cells [4]): YES; H2O2-resistant (WI-38 cells [4]; [16]): YES; EC50 (WI-38 cells [4]; [17]): 6.2 µM; EC50 (WI-38 cells [4]; [18]): 2.65 µM"
